Experimental data: patent publication US20060069132A1, “Azolecarboxamide herbicides” (priority 2004, published 2006)

Legend:
large crabgrass = assay: Test C pre-/postemergence herbicide test; assay type: in vivo, Digitaria sanguinalis; details: for Crabgrass, Large plant response rating: 500 g ai/ha
Summary of the method: (§1)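 Visual injury scores run from 0 (no effect) to 100 (complete control), assessed relative to untreated controls 12 to 14 days after treatment in the greenhouse. Chemicals were formulated in a non-phytotoxic solvent mixture with surfactant and applied to soil after planting or to emerged plants at the 1- to 4-leaf stage.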

rice [1] = assay: Test C flooded paddy test; assay type: in vivo, Oryza sativa; details: for Plant response rating, Rice: 500 g ai/ha, visual rating after 12 to 14 days
Summary of the method: (§2)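 Plants were grown to the 1- to 4-leaf stage (2–18 cm) and then treated postemergence, or grown to the 2-leaf stage for the flooded paddy test. They were held in a greenhouse for 12 to 14 days and then scored by eye against controls, where 0 is no effect and 100 is complete control.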

barnyardgrass = assay: Test A pre-/postemergence herbicide test; assay type: in vivo, Echinochloa crus-galli
Summary of the method: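 Pre: seeded sandy loam, directed soil spray, compound in non-phytotoxic solvent + surfactant. Post: 1–2-leaf plants (2–10 cm), sprayed to runoff. Greenhouse ~10 d; visual injury vs untreated, 0–100 scale.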

ducksalad = assay: Test C flooded paddy test; assay type: in vivo, Heteranthera limosa; details: for Plant response rating, Ducksalad: 500 g ai/ha, visual rating after 12 to 14 days
chickweed = assay: Test C postemergence herbicide test; assay type: in vivo, Stellaria media; details: for Chickweed plant response rating: 500 g ai/ha
Summary of the method: as §2

common ragweed = assay: Test C pre-/postemergence herbicide test; assay type: in vivo, Ambrosia elatior; set-up: key to Plant response rating, Ragweed: 0 = no effect, 100 = complete control; details: for Ragweed plant response rating: 500 g ai/ha
Summary of the method: as §1

eastern black nightshade = assay: Test C pre-/postemergence herbicide test; assay type: in vivo, Solanum ptycanthum; details: for Plant response rating (0 = no effect, 100 = complete control), Nightshade: 62 g ai/ha; for Plant response rating (0 = no effect, 100 = complete control), Nightshade / Plant response rating, Nightshade: preemergence; for Plant response rating, Nightshade: visual, 12 to 14 days; for Nightshade plant response rating: Preemergence, 500 g ai/ha, scale 0 to 100, 0 no effect, 100 complete control
Summary of the method: as §1

Surinam grass = assay: Test C pre-/postemergence herbicide test; assay type: in vivo, Urochloa decumbens; details: for Surinam Grass plant response rating: 500 g ai/ha
Summary of the method: as §1

pigweed = assay: Test C pre-/postemergence herbicide test; assay type: in vivo, Amaranthus retroflexus; details: for Pigweed plant response rating: 500 g ai/ha
Summary of the method: as §1

rice [2] = assay: Test B pre-/postemergence herbicide test; assay type: in vivo, Oryza sativa; details: for Plant response rating, Rice: preemergence
Summary of the method: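 Formulation: non-phytotoxic solvent mix with surfactant. Timing: preemergence on seed and postemergence on 2–18 cm plants, applied concurrently. Readout after 13–15 d greenhouse: visual 0–100 control rating against controls.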

[3] = 125 g ai/ha, scale 0 (no effect) to 100 (complete control), visual, 12 to 14 days, preemergence
[4] = 250 g ai/ha, scale 0 to 100 (0 no effect, 100 complete control), visual, 12 to 14 days, preemergence
[5] = Postemergence, 125 g ai/ha, scale 0 to 100, 0 no effect, 100 complete control
[6] = Postemergence, 250 g ai/ha, scale 0 to 100, 0 no effect, 100 complete control
[7] = Preemergence, scale 0 to 100, 0 no effect, 100 complete control
[8] = postemergence, 62 g ai/ha, scale 0 to 100
[9] = 62 g ai/ha, scale 0 to 100 (0 no effect, 100 complete control)
[10] = 125 g ai/ha, scale of 0 to 100, 0 is no effect, 100 is complete control
[11] = 250 g ai/ha, scale of 0 to 100, 0 is no effect, 100 is complete control
[12] = scale 0 to 100 (0 no effect, 100 complete control)
[13] = Postemergence, 500 g ai/ha, 0 to 100 scale, 0 no effect, 100 complete control
[14] = Postemergence, 2000 g ai/ha, 0 to 100 scale, 0 no effect, 100 complete control
[15] = Preemergence, 500 g ai/ha, visual rating, 0 to 100 scale (0 no effect, 100 complete control)
[16] = Preemergence, 2000 g ai/ha, 0 to 100 scale, 0 no effect, 100 complete control
[17] = 125 g ai/ha, scale 0 (no effect) to 100 (complete control)
[18] = 125 g ai/ha, 0 to 100 scale, 0 is no effect, 100 is complete control
[19] = postemergence, 125 g ai/ha, scale 0 to 100

CCNC(=O)c1cc(NC(=O)c2cc(C(C)(C)C)nn2CC)ccc1F [Compound 58]
Plant response rating (0 = no effect, 100 = complete control), Crabgrass, Large (large crabgrass; 62 g ai/ha, preemergence): 90
Plant response rating, Crabgrass, Large (large crabgrass; [3]): 95
Plant response rating, Crabgrass, Large (large crabgrass; [4]): 95
Crabgrass, Large plant response rating (large crabgrass; Postemergence, scale 0 to 100): 30
Plant response rating, Crabgrass, Large (large crabgrass; [5]): 5
Plant response rating, Crabgrass, Large (large crabgrass; [6]): 15
Crabgrass, Large plant response rating (large crabgrass; [7]): 95
Plant response rating, Crabgrass, Large (large crabgrass; [8]): 5
Rice plant response rating (rice [1]; [9]): 0
Rice plant response rating (rice [1]; [10]): 35
Rice plant response rating (rice [1]; [11]): 35
Plant response rating, Rice (rice [1]; [12]): 75
Plant response rating, Barnyardgrass (barnyardgrass; [13]): 70
Plant response rating, Barnyardgrass (barnyardgrass; [14]): 80
Barnyardgrass plant response rating (barnyardgrass; [15]): 65
Barnyardgrass plant response rating (barnyardgrass; [16]): 75
Ducksalad plant response rating (ducksalad; [9]): 0
Ducksalad plant response rating (ducksalad; [10]): 15
Ducksalad plant response rating (ducksalad; [11]): 20
Plant response rating, Ducksalad (ducksalad; [12]): 60
Chickweed plant response rating (chickweed; Postemergence, scale 0 to 100): 85
Plant response rating, Chickweed (chickweed; [5]): 20
Plant response rating, Chickweed (chickweed; [6]): 50
Plant response rating, Chickweed (chickweed; [8]): 20
Plant response rating (0 = no effect, 100 = complete control), Ragweed (common ragweed; 62 g ai/ha, preemergence): 60
Plant response rating, Ragweed (common ragweed; [3]): 85
Plant response rating, Ragweed (common ragweed; [4]): 100
Ragweed plant response rating (common ragweed; Postemergence, scale 0 to 100): 85
Plant response rating, Ragweed (common ragweed; [6]): 5
Ragweed plant response rating (common ragweed; [7]): 100
Plant response rating, Ragweed (common ragweed; [8]): 0
Plant response rating (0 = no effect, 100 = complete control), Nightshade (eastern black nightshade): 95
Plant response rating, Nightshade (eastern black nightshade; [17]): 100
Plant response rating, Nightshade (eastern black nightshade; 250 g ai/ha, scale 0 to 100 (0 no effect, 100 complete control)): 100
Nightshade plant response rating (eastern black nightshade): 100
Plant response rating (0 = no effect, 100 = complete control), Surinam Grass (Surinam grass; 62 g ai/ha, preemergence): 10
Plant response rating, Surinam Grass (Surinam grass; [3]): 55
Plant response rating, Surinam Grass (Surinam grass; [4]): 80
Surinam Grass plant response rating (Surinam grass; Postemergence, scale 0 to 100): 25
Surinam Grass plant response rating (Surinam grass; [7]): 100
Plant response rating (0 = no effect, 100 = complete control), Pigweed (pigweed; 62 g ai/ha, preemergence): 100
Plant response rating, Pigweed (pigweed; [3]): 100
Plant response rating, Pigweed (pigweed; [4]): 100
Pigweed plant response rating (pigweed; Postemergence, scale 0 to 100): 85
Plant response rating, Pigweed (pigweed; [6]): 70
Pigweed plant response rating (pigweed; [7]): 100
Plant response rating, Pigweed (pigweed; [8]): 60
Rice plant response rating (rice [2]; Preemergence, 500 g ai/ha, scale 0 to 100): 80
Plant response rating, Rice (rice [2]; [18]): 60

CCOC(=O)c1cc(NC(=O)c2cc(C(C)(C)C)nn2CC)ccc1OC [Compound 96]
Plant response rating (0 = no effect, 100 = complete control), Crabgrass, Large (large crabgrass; 62 g ai/ha, preemergence): 85
Plant response rating, Crabgrass, Large (large crabgrass; [3]): 100
Plant response rating, Crabgrass, Large (large crabgrass; [4]): 100
Crabgrass, Large plant response rating (large crabgrass; Postemergence, scale 0 to 100): 5
Plant response rating, Crabgrass, Large (large crabgrass; [6]): 5
Crabgrass, Large plant response rating (large crabgrass; [7]): 100
Plant response rating, Crabgrass, Large (large crabgrass; [19]): 0
Plant response rating, Crabgrass, Large (large crabgrass; [8]): 0
Rice plant response rating (rice [1]; [9]): 40
Rice plant response rating (rice [1]; [10]): 45
Rice plant response rating (rice [1]; [11]): 70
Plant response rating, Rice (rice [1]; [12]): 75
Barnyardgrass plant response rating (barnyardgrass; [13]): 60
Plant response rating, Barnyardgrass (barnyardgrass; [14]): 80
Barnyardgrass plant response rating (barnyardgrass; [15]): 70
Barnyardgrass plant response rating (barnyardgrass; [16]): 90
Ducksalad plant response rating (ducksalad; [9]): 45
Ducksalad plant response rating (ducksalad; [10]): 45
Ducksalad plant response rating (ducksalad; [11]): 75
Plant response rating, Ducksalad (ducksalad; [12]): 90
Chickweed plant response rating (chickweed; Postemergence, scale 0 to 100): 100
Plant response rating, Chickweed (chickweed; [6]): 100
Plant response rating, Chickweed (chickweed; [19]): 100
Plant response rating, Chickweed (chickweed; [8]): 100
Plant response rating (0 = no effect, 100 = complete control), Ragweed (common ragweed; 62 g ai/ha, preemergence): 50
Plant response rating, Ragweed (common ragweed; [3]): 90
Ragweed plant response rating (common ragweed; Postemergence, scale 0 to 100): 85
Plant response rating, Ragweed (common ragweed; [6]): 80
Ragweed plant response rating (common ragweed; [7]): 100
Plant response rating, Ragweed (common ragweed; [19]): 50
Plant response rating, Ragweed (common ragweed; [8]): 50
Plant response rating (0 = no effect, 100 = complete control), Nightshade (eastern black nightshade): 90
Plant response rating, Nightshade (eastern black nightshade; [17]): 95
Nightshade plant response rating (eastern black nightshade): 100
Plant response rating (0 = no effect, 100 = complete control), Surinam Grass (Surinam grass; 62 g ai/ha, preemergence): 0
Plant response rating, Surinam Grass (Surinam grass; [3]): 10
Surinam Grass plant response rating (Surinam grass; Postemergence, scale 0 to 100): 60
Plant response rating, Surinam Grass (Surinam grass; [6]): 40
Surinam Grass plant response rating (Surinam grass; [7]): 65
Plant response rating, Surinam Grass (Surinam grass; [19]): 40
Plant response rating, Surinam Grass (Surinam grass; [8]): 0
Plant response rating (0 = no effect, 100 = complete control), Pigweed (pigweed; 62 g ai/ha, preemergence): 100
Plant response rating, Pigweed (pigweed; [3]): 100
Pigweed plant response rating (pigweed; Postemergence, scale 0 to 100): 100
Plant response rating, Pigweed (pigweed; [6]): 100
Pigweed plant response rating (pigweed; [7]): 100
Plant response rating, Pigweed (pigweed; [19]): 100
Plant response rating, Pigweed (pigweed; [8]): 70
Plant response rating, Rice (rice [2]; 500 g ai/ha, visual rating 0-100, 0 no effect, 100 complete control): 70
Plant response rating, Rice (rice [2]; [18]): 60
